Consider 18 compounds from patent US4966891A, “Fluorocytidine derivatives” (priority 1987, dated 1990).

The first test relates to Meth A fibrosarcoma. Briefly: Antitumor testing against Meth A fibrosarcoma (oral, s.c. implanted). It counts as in vivo, mice. Particulars: Mus musculus, 1.5 mmole/kg/day × 7, p.o., read-out: Inhibition of tumor growth. The procedure:
Sarcoma 180 cells (2×10^6 cells) were implanted subcutaneously into mice (20-22 g) on day 0. The compounds of the present invention were administered daily from day 1 through 7 orally. The animals were sacrificed on day 14 and tumors were excised and weighed. The percent inhibition of tumor growth given in Table 1 below was calculated from the formula:
T=weight of the tumors from the treated group, C=weight of the tumors from the control group.
Meth A fibrosarcoma cells (2×10^5 cells) were implanted subcutaneously into mice (21-22 g). The testing against Meth A fibrosarcoma and the calculation of the percent inhibition of tumor growth were effected according to a manner analogous to that of the testing against Sarcoma 180.
As to `C[C@H]1O[C@@H](n2cc(F)c(NC(=O)c3ccc([N+](=O)[O-])cc3)nc2=O)[C@H](O)[C@@H]1O` [Example 29], the inhibition in vivo at 1500 µmol/kg was determined as 49%.

On to `C[C@H]1O[C@@H](n2cc(F)c(NC(=O)c3cccc([N+](=O)[O-])c3)nc2=O)[C@H](O)[C@@H]1O` [Example 30], for which the inhibition in vivo at 1500 µmol/kg amounted to 55%.

As for `Cc1cccc(C(=O)Nc2nc(=O)n([C@@H]3O[C@H](C)[C@@H](O)[C@H]3O)cc2F)c1` [Example 18], the inhibition in vivo at 1500 µmol/kg came to 51%.

Regarding `C[C@H]1O[C@@H](n2cc(F)c(NC(=O)c3cccs3)nc2=O)[C@H](O)[C@@H]1O` [Example 37, 5'-deoxy-5-fluoro-N^4-(2-thenoyl)cytidine], the inhibition in vivo at 1500 µmol/kg worked out at 59%.

For `Cc1ccccc1C(=O)Nc1nc(=O)n([C@@H]2O[C@H](C)[C@@H](O)[C@H]2O)cc1F` [Example 19], the inhibition in vivo at 1500 µmol/kg was found to be 3%.

With `COc1ccc(C(=O)Nc2nc(=O)n([C@@H]3O[C@H](C)[C@@H](O)[C@H]3O)cc2F)c(OC)c1` [Example 28], the inhibition in vivo at 1500 µmol/kg is -13%.

As to `Cc1ccc(C(=O)Nc2nc(=O)n([C@@H]3O[C@H](C)[C@@H](O)[C@H]3O)cc2F)cc1C` [Example 53], the inhibition in vivo at 1500 µmol/kg turned out to be 48%.

As to `C[C@H]1O[C@@H](n2cc(F)c(NC(=O)Cc3ccccc3)nc2=O)[C@H](O)[C@@H]1O` [Example 14], the inhibition in vivo at 1500 µmol/kg is 66%.

For `CCC(=O)Nc1nc(=O)n([C@@H]2O[C@H](C)[C@@H](O)[C@H]2O)cc1F` [Example 45, 5'-deoxy-5-fluoro-N^4-propionylcytidine], the inhibition in vivo at 1500 µmol/kg was determined as 49%.

Regarding `C[C@H]1O[C@@H](n2cc(F)c(N)nc2=O)[C@H](OC(=O)c2ccccc2)[C@@H]1OC(=O)c1ccccc1` [Example 57, 2',3'-di-O-benxoyl-5'-deoxy-5-fluorocytidine], the inhibition in vivo at 1500 µmol/kg amounted to 28%.

Turning to `C[C@H]1O[C@@H](n2cc(F)c(NC(=O)c3ccccc3Cl)nc2=O)[C@H](O)[C@@H]1O` [Example 22], the inhibition in vivo at 1500 µmol/kg worked out at 42%.

Consider `C[C@H]1O[C@@H](n2cc(F)c(NC(=O)Cc3c[nH]c4ccccc34)nc2=O)[C@H](O)[C@@H]1O` [Example 54, 5'-deoxy-5-fluoro-N^4-(3-indolylacetyl)cytidine], for which the inhibition in vivo at 1500 µmol/kg turned out to be 55%.

For `CCSC(=O)Nc1nc(=O)n([C@@H]2O[C@H](C)[C@@H](O)[C@H]2O)cc1F` [Example 44, 5'-deoxy-N^4-(ethylthio)carbonyl-5-fluorocytidine], the inhibition in vivo at 1500 µmol/kg stood at 38%.

In the case of `C[C@H]1O[C@@H](n2cc(F)c(NC(=O)c3ccco3)nc2=O)[C@H](O)[C@@H]1O` [Example 36, 5'-deoxy-5-fluoro-N^4-(2-furoyl)cytidine], the inhibition in vivo at 1500 µmol/kg is 53%.

Consider `C[C@H]1O[C@@H](n2cc(F)c(NC(=O)c3ccc(Cl)cc3)nc2=O)[C@H](O)[C@@H]1O` [Example 20], for which the inhibition in vivo at 1500 µmol/kg was 53%.

`C[C@H]1O[C@@H](n2cc(F)c(N)nc2=O)[C@H](O)[C@@H]1OC(=O)c1ccccc1` [Example 59, 3'-O-benzoyl-5'-deoxy-5-fluorocytidine]: the inhibition in vivo at 1500 µmol/kg turned out to be 23%.

With `COc1ccc(C(=O)Nc2nc(=O)n([C@@H]3O[C@H](C)[C@@H](O)[C@H]3O)cc2F)cc1OC` [Example 26], the inhibition in vivo at 1500 µmol/kg turned out to be 37%.

For the compound `COC(=O)c1ccc(C(=O)Nc2nc(=O)n([C@@H]3O[C@H](C)[C@@H](O)[C@H]3O)cc2F)cc1` [Example 31, 5'-deoxy-5-fluoro-N^4-(4-methoxycarbonylbenzoyl)cytidine], the inhibition in vivo at 1500 µmol/kg was 55%.

Still in this test, the particulars now being: Mus musculus, 3.0 mmole/kg/day × 7, p.o., read-out: Inhibition of tumor growth.
As for `C[C@H]1O[C@@H](n2cc(F)c(NC(=O)c3ccc([N+](=O)[O-])cc3)nc2=O)[C@H](O)[C@@H]1O` [Example 29], the inhibition in vivo at 3000 µmol/kg was 92%.

With `C[C@H]1O[C@@H](n2cc(F)c(NC(=O)c3cccc([N+](=O)[O-])c3)nc2=O)[C@H](O)[C@@H]1O` [Example 30], the inhibition in vivo at 3000 µmol/kg is 58%.

For `Cc1cccc(C(=O)Nc2nc(=O)n([C@@H]3O[C@H](C)[C@@H](O)[C@H]3O)cc2F)c1` [Example 18], the inhibition in vivo at 3000 µmol/kg is 91%.

Consider `C[C@H]1O[C@@H](n2cc(F)c(NC(=O)c3cccs3)nc2=O)[C@H](O)[C@@H]1O` [Example 37, 5'-deoxy-5-fluoro-N^4-(2-thenoyl)cytidine], for which the inhibition in vivo at 3000 µmol/kg was 86%.

Regarding `Cc1ccccc1C(=O)Nc1nc(=O)n([C@@H]2O[C@H](C)[C@@H](O)[C@H]2O)cc1F` [Example 19], the inhibition in vivo at 3000 µmol/kg was 64%.

As to `COc1ccc(C(=O)Nc2nc(=O)n([C@@H]3O[C@H](C)[C@@H](O)[C@H]3O)cc2F)c(OC)c1` [Example 28], the inhibition in vivo at 3000 µmol/kg was -13%.

Take `Cc1ccc(C(=O)Nc2nc(=O)n([C@@H]3O[C@H](C)[C@@H](O)[C@H]3O)cc2F)cc1C` [Example 53]: the inhibition in vivo at 3000 µmol/kg turned out to be 85%.

Take `C[C@H]1O[C@@H](n2cc(F)c(NC(=O)Cc3ccccc3)nc2=O)[C@H](O)[C@@H]1O` [Example 14]: the inhibition in vivo at 3000 µmol/kg was 94%.

Consider `CCC(=O)Nc1nc(=O)n([C@@H]2O[C@H](C)[C@@H](O)[C@H]2O)cc1F` [Example 45, 5'-deoxy-5-fluoro-N^4-propionylcytidine], for which the inhibition in vivo at 3000 µmol/kg was 71%.

For `C[C@H]1O[C@@H](n2cc(F)c(N)nc2=O)[C@H](OC(=O)c2ccccc2)[C@@H]1OC(=O)c1ccccc1` [Example 57, 2',3'-di-O-benxoyl-5'-deoxy-5-fluorocytidine], the inhibition in vivo at 3000 µmol/kg amounted to 56%.

`C[C@H]1O[C@@H](n2cc(F)c(NC(=O)c3ccccc3Cl)nc2=O)[C@H](O)[C@@H]1O` [Example 22]: the inhibition in vivo at 3000 µmol/kg came out at 42%.

Regarding `C[C@H]1O[C@@H](n2cc(F)c(NC(=O)Cc3c[nH]c4ccccc34)nc2=O)[C@H](O)[C@@H]1O` [Example 54, 5'-deoxy-5-fluoro-N^4-(3-indolylacetyl)cytidine], the inhibition in vivo at 3000 µmol/kg amounted to 85%.

Regarding `CCSC(=O)Nc1nc(=O)n([C@@H]2O[C@H](C)[C@@H](O)[C@H]2O)cc1F` [Example 44, 5'-deoxy-N^4-(ethylthio)carbonyl-5-fluorocytidine], the inhibition in vivo at 3000 µmol/kg amounted to 66%.

As for `C[C@H]1O[C@@H](n2cc(F)c(NC(=O)c3ccco3)nc2=O)[C@H](O)[C@@H]1O` [Example 36, 5'-deoxy-5-fluoro-N^4-(2-furoyl)cytidine], the inhibition in vivo at 3000 µmol/kg came to 92%.

Take `C[C@H]1O[C@@H](n2cc(F)c(NC(=O)c3ccc(Cl)cc3)nc2=O)[C@H](O)[C@@H]1O` [Example 20]: the inhibition in vivo at 3000 µmol/kg came to 84%.

Turning to `C[C@H]1O[C@@H](n2cc(F)c(N)nc2=O)[C@H](O)[C@@H]1OC(=O)c1ccccc1` [Example 59, 3'-O-benzoyl-5'-deoxy-5-fluorocytidine], the inhibition in vivo at 3000 µmol/kg is 80%.

Turning to `COc1ccc(C(=O)Nc2nc(=O)n([C@@H]3O[C@H](C)[C@@H](O)[C@H]3O)cc2F)cc1OC` [Example 26], the inhibition in vivo at 3000 µmol/kg stood at 58%.

`COC(=O)c1ccc(C(=O)Nc2nc(=O)n([C@@H]3O[C@H](C)[C@@H](O)[C@H]3O)cc2F)cc1` [Example 31, 5'-deoxy-5-fluoro-N^4-(4-methoxycarbonylbenzoyl)cytidine]: the inhibition in vivo at 3000 µmol/kg turned out to be 84%.
